# Counter-ions that a name gives are not always drawn.
# Columns and labels:
# [1] = test system: Staphylococcus aureus MW2 (mecA+); experiment: IC50 (growth, competition assay); details: cefoxitin: subinhibitory
# Summary of the method: (§1)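 Per plate, DsRed (540/590) and GFP (485/520) readings were normalized between the medians of the single-strain controls, after which No Treatment was fixed at 0.5. These readings came from a 1:1 mix of pre-induced fluorescent S. aureus MW2 strains with and without the resistance gene, grown for 20 h at 37 °C and 90% humidity, unshaken, in LB with a daily-set subinhibitory drug dose in 1536-well plates. Per-strain IC50 meant the dose halving the No Treatment signal, or the maximal signal.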
# [2] = test system: Staphylococcus aureus MW2 delta-mecA (mecA-); experiment: IC50 (growth, competition assay); details: cefoxitin: subinhibitory
# Summary of the method: as §1
SMILES,IC50 ([1]; fluorescent label: DsRed) [µM],IC50 ([1]; fluorescent label: GFP) [µM],IC50 ([2]; fluorescent label: DsRed) [µM],IC50 ([2]; fluorescent label: GFP) [µM]
CCc1oc2ccccc2c1C(=O)c1cc(Br)c(O)c(Br)c1 [DESURIC],< 9.85,< 9.85,< 9.85,< 9.85
Cc1cc(N)c2ccccc2[n+]1CCCCCCCCCC[n+]1c(C)cc(N)c2ccccc21 [FLUOMIZIN],13.2,12.2,< 9.85,< 9.85
CN(C(=O)CN(CCO)CC(=O)N(C)C(C)(C)Cc1ccccc1)C(C)(C)Cc1ccccc1 [OXETHAZAINE],103,111,40.2,30.5
NC1CCN(c2c(F)cc3c(=O)c(C(=O)O)cn(C4CC4)c3c2Cl)C1 (stereo unspecified),< 9.85,< 9.85,< 9.85,< 9.85
CN(C)c1ccc(O)c2c1C[C@H]1C[C@H]3[C@H](N(C)C)C(O)=C(C(N)=O)C(=O)[C@@]3(O)C(O)=C1C2=O [SOLODYN],< 9.85,< 9.85,< 9.85,< 9.85
"O=Nc1ccc2oc(=O)ccc2c1 [6-Nitroso-1,2-benzopyrone]",53.1,57.9,31,32.1
Cc1ccc(C(=O)N(CCCN)[C@@H](c2oc3cc(Cl)ccc3c(=O)c2Cc2ccccc2)C(C)C)cc1,30.8,30.6,5.93,7.88
O=C(O)c1cn(C2CC2)c2cc(N3CCNCC3)c(F)cc2c1=O [CIPRO],< 9.85,< 9.85,< 9.85,< 9.85
N[C@@H](C(=O)N[C@@H]1C(=O)N2C(C(=O)O)=C(Cl)CS[C@H]12)c1ccccc1 [Cefaclor],< 9.85,< 9.85,< 9.85,< 9.85
O=C(NC[C@H]1CN(c2ccc(N3CCOCC3=O)cc2)C(=O)O1)c1ccc(Cl)s1 [XARELTO],< 9.85,< 9.85,< 9.85,< 9.85
C=C(NC(=O)C(=C)NC(=O)c1csc(C2=N[C@@H]3c4csc(n4)[C@H]4NC(=O)c5csc(n5)[C@H]([C@](C)(O)[C@@H](C)O)NC(=O)[C@H]5CSC(=N5)/C(=C/C)NC(=O)[C@H]([C@@H](C)O)NC(=O)c5csc(n5)[C@]3(CC2)NC(=O)[C@H](C)NC(=O)C(=C)NC(=O)[C@H](C)NC(=O)[C@H]([C@@H](C)CC)N[C@@H]2C=Cc3c([C@H](C)O)cc(nc3[C@H]2O)C(=O)O[C@@H]4C)n1)C(N)=O [BRYAMYCIN],< 9.85,< 9.85,< 9.85,< 9.85
CCN1CCN(C(=O)N[C@@H](C(=O)N[C@@H]2C(=O)N3C(C(=O)O)=C(CSc4nnnn4C)CS[C@H]23)c2ccc(O)cc2)C(=O)C1=O [CEFOBID],19.5,24.5,< 9.85,< 9.85
Cn1nnnc1SCC1=C(C(=O)O)N2C(=O)[C@@H](NC(=O)[C@H](OC=O)c3ccccc3)[C@H]2SC1 [MANDOL],21.3,22.2,< 9.85,< 9.85
COc1ncc(-c2ccc3nccc(-c4ccnnc4)c3c2)cc1NS(=O)(=O)c1ccc(F)cc1F,< 9.85,< 9.85,< 9.85,< 9.85
CCOC(=O)C1=C(C)NC(C)=C(C(=O)OC)C1c1cccc(Cl)c1Cl (stereo unspecified) [PLENDIL],29.9,30,< 9.85,< 9.85
O=C(O)c1ccc2cc(-c3ccc(O)c(C45CC6CC(CC(C6)C4)C5)c3)ccc2c1 [CD 437],< 9.85,< 9.85,< 9.85,< 9.85
O=C(c1ccc(Nc2nccc(-c3cc4ccccc4s3)n2)cc1)N1CCC(N2CCCC2)CC1 [IKK-16],49.4,56.8,18.3,17.7
"CCCc1c(-c2ccc(O)cc2)nn(-c2ccc(O)cc2)c1-c1ccc(O)cc1 [1,3,5-tris(4-hydroxyphenyl)-4-propyl-1H-pyrazole]",12.5,20.3,< 9.85,< 9.85
CO/N=C(\C(=O)N[C@@H]1C(=O)N2C(C(=O)OCOC(=O)C(C)(C)C)=C(/C=C\c3scnc3C)CS[C@H]12)c1csc(N)n1 [SPECTRACEF],32.9,18.7,< 9.85,< 9.85
CCC(=O)O[C@H]1[C@H](O[C@@H]2[C@@H](C)[C@H](O[C@H]3C[C@@](C)(OC)[C@@H](O)[C@H](C)O3)[C@@H](C)C(=O)O[C@H](CC)[C@@](C)(O)[C@H](O)[C@@H](C)C(=O)[C@H](C)C[C@@]2(C)O)O[C@H](C)C[C@@H]1N(C)C [ILOSONE],< 9.85,17,< 9.85,< 9.85

SMILES,IC50 ([1]; fluorescent label: DsRed) [µM],IC50 ([1]; fluorescent label: GFP) [µM],IC50 ([2]; fluorescent label: DsRed) [µM],IC50 ([2]; fluorescent label: GFP) [µM]
C[C@@H]1CN(c2c(F)c(N)c3c(=O)c(C(=O)O)cn(C4CC4)c3c2F)C[C@H](C)N1 [Sparfloxacin],0.78,0.746,< 0.498,< 0.498
FC(F)(F)c1ccc(Nc2nc3ccc(Oc4ccnc(-c5ncc(C(F)(F)F)[nH]5)c4)cc3[nH]2)cc1 [Raf265 derivative],19.6,23.4,< 9.85,< 9.85
Cn1sc(=O)n(Cc2ccccc2)c1=O [TDZD-8],< 9.85,< 9.85,< 9.85,< 9.85
C[C@@H](O)[C@H]1C(=O)N2C(C(=O)O)=C(S[C@@H]3CN[C@H](CNS(N)(=O)=O)C3)[C@H](C)[C@H]12 [Doripenem Hydrate],> 150,> 150,137,130
CC[C@H]1OC(=O)[C@H](C)[C@@H](O[C@H]2C[C@@](C)(OC)[C@@H](O)[C@H](C)O2)[C@H](C)[C@@H](O[C@@H]2O[C@H](C)C[C@H](N(C)C)[C@H]2O)[C@](C)(O)C[C@@H](C)CN(C)[C@H](C)[C@@H](O)[C@]1(C)O [Azithromycin (Zithromax)],22.8,15.7,0.827,1.29
O=C(O)C1=C(CSc2nnnn2CS(=O)(=O)O)CS[C@@H]2[C@H](NC(=O)[C@H](O)c3ccccc3)C(=O)N12 [MONOCID],98.3,109,< 9.85,< 9.85
Cc1cc2nc3c(=O)[nH]c(=O)nc-3n(C[C@H](O)[C@H](O)[C@H](O)CO)c2cc1C [FLAVAXIN],> 150,> 150,> 150,> 150
COc1c(O)cc2oc3cc(O)c(CC=C(C)C)c(O)c3c(=O)c2c1CC=C(C)C [alpha-MANGOSTIN],< 9.85,< 9.85,< 9.85,< 9.85
CC1(C)S[C@@H]2[C@H](NC(=O)[C@H](NC(=O)N3CCNC3=O)c3ccccc3)C(=O)N2[C@H]1C(=O)O [Azlocillin sodium salt],< 9.85,27.7,< 9.85,< 9.85
CO/N=C(\C(=O)N[C@@H]1C(=O)N2C(C(=O)OCOC(=O)C(C)(C)C)=C(/C=C\c3scnc3C)CS[C@H]12)c1csc(N)n1 [Cefditoren pivoxil],16.7,13.3,< 0.498,< 0.498
O[C@@H](COc1cccc2ncccc12)CN1CCN([C@@H]2c3ccccc3[C@@H]3[C@H](c4ccccc42)C3(F)F)CC1,52.2,42.5,14.3,< 9.85
CC(C)c1nc(CN(C)C(=O)N[C@@H](CCN2CCOCC2)C(=O)N[C@H](CC[C@H](Cc2ccccc2)NC(=O)OCc2cncs2)Cc2ccccc2)cs1 [Cobicistat (GS-9350)],109,107,29.4,27.6
CCN1CCN(C(=O)N[C@@H](C(=O)N[C@@H]2C(=O)N3C(C(=O)O)=C(CSc4nnnn4C)CS[C@H]23)c2ccc(O)cc2)C(=O)C1=O [Cefoperazone (Cefobid)],4.66,6.86,< 0.498,< 0.498
O=C1C(Cl)=C(NCCN2CCOCC2)C(=O)c2ncccc21,33,91.7,28.8,< 9.85
CC1(C)S[C@@H]2[C@H](NC(=O)[C@H](N)c3ccc(O)cc3)C(=O)N2[C@H]1C(=O)O [AMOXIL],135,106,< 9.85,< 9.85
CC/C(=C(\c1ccccc1)c1ccc(OCCN(C)C)cc1)c1ccccc1 [Tamoxifen citrate],14.9,14.9,< 9.85,< 9.85
CC[C@@H]1C(=O)N(C)c2cnc(Nc3ccc(C(=O)NC4CCN(C)CC4)cc3OC)nc2N1C1CCCC1 [BI 2536],106,112,21.6,30.1
CC[C@H]1OC(=O)[C@H](C)[C@@H](O[C@H]2C[C@@](C)(OC)[C@@H](O)[C@H](C)O2)[C@H](C)[C@@H](O[C@@H]2O[C@H](C)C[C@H](N(C)C)[C@H]2O)[C@](C)(O)C[C@@H](C)CN(C)[C@H](C)[C@@H](O)[C@]1(C)O [ZITHROMAX],< 9.85,15.7,< 9.85,< 9.85
CN1CCN(CCCN2c3ccccc3Sc3ccc(C(F)(F)F)cc32)CC1 [Trifluoperazine dihydrochloride],51.1,52.4,15.7,16.5

# From the supplement of paper PMC7695840
